Assay results taken from ChEMBL document CHEMBL1201862, “PubChem BioAssay data set” (2004).
Each block holds one molecule with its values, some of them ahead of it. Activity calls are given as the source filed them.

Assays:
CAAX prenyl protease 2 [1] = target: T1, CAAX prenyl protease 2 (Saccharomyces cerevisiae S288c, UniProt Q03530); format: biochemical
T1 sequence (Q03530 whole entry): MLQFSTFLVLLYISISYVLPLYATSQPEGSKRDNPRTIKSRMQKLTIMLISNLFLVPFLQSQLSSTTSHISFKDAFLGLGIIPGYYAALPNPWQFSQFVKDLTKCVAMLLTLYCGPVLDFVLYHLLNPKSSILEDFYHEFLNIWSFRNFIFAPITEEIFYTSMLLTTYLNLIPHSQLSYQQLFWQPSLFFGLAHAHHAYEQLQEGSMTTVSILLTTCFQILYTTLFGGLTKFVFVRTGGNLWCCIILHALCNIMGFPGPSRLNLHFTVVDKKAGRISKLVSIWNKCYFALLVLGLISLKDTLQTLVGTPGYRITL

CAAX prenyl protease 2 [2] = target: T2, CAAX prenyl protease 2 (Homo sapiens, UniProt Q9Y256); test: inhibition of Ras-converting CAAX endoprotease – biochemical, plate reader, dry powder samples, dose response (AID 588848)
CAAX prenyl protease 2 [3] = target: T1, CAAX prenyl protease 2; test: inhibition of Rce1p peptide cleavage – biochemical, plate reader, dry powder retest, dose response (AID 588851)
CAAX prenyl protease 2 [4] = target: T2, CAAX prenyl protease 2; test: inhibition of Ras-converting CAAX protease Rce1 – biochemical, yeast membranes, quenched-peptide fluorescence, cherry-pick, dose response (AID 588849)
Cytochrome P450 2C19 = Cytochrome P450 2C19 (Homo sapiens, UniProt P33261); test: Cytochrome panel assay with activity outcomes. Panel member name: p450-cyp2c19 Compounds with AC50 equal or less than 10 uM are considered active; format: functional
[5] = target: Voltage-gated inwardly rectifying potassium channel KCNH2 (Homo sapiens, UniProt Q12809); details: Potency;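 further: confirmatory quantitative high-throughput screen measuring inhibition of hERG channel activity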
Bcl-2-like protein 10 = target: T3, Bcl-2-like protein 10 (Homo sapiens, UniProt Q9HD36); test: Isothermal titration calorimetry (ITC) with Bcl-B and compounds active in primary screen. [Related pubchem assays (depositor defined):AID1693]; format: functional
T3 sequence (Q9HD36 whole entry): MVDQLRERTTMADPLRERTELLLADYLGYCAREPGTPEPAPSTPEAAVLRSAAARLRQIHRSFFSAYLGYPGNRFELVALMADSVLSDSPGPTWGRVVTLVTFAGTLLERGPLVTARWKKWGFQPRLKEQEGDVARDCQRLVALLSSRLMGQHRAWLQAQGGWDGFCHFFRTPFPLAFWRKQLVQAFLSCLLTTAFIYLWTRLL

BJ [6] = test: BJ-TERT fibroblast viability loss – cell-based, RAS-independent, luminescence, dose response (AID 1933); format: functional; details: Homo sapiens
BJ [7] = test: cells; format: functional, cell-based; details: Homo sapiens
BJ [8] = test: BJ-TERT-LT-ST fibroblast viability loss – cell-based, RAS-independent, luminescence, dose response (AID 1935); format: functional; details: Homo sapiens;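 further: BJ fibroblasts immortalized with TERT plus LT and ST oncogenes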
[9] = DRD fibroblast viability loss – cell-based, non-viral oncogenic, luminescence, dose response (AID 1934); format: functional; details: Homo sapiens
[10] = target: T4, Microphthalmia-associated transcription factor (Homo sapiens, UniProt O75030); test: reducers of TRPM1 reporter luminescence, concentration series – cell-based, SK-MEL-5, cherry-picked, set 3, MITF inhibitor project, dose response (AID 493073); format: functional;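 further: SK-MEL-5 melanoma cells with luciferase driven by the MITF target TRPM1 promoter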
T4 sequence (O75030 whole entry): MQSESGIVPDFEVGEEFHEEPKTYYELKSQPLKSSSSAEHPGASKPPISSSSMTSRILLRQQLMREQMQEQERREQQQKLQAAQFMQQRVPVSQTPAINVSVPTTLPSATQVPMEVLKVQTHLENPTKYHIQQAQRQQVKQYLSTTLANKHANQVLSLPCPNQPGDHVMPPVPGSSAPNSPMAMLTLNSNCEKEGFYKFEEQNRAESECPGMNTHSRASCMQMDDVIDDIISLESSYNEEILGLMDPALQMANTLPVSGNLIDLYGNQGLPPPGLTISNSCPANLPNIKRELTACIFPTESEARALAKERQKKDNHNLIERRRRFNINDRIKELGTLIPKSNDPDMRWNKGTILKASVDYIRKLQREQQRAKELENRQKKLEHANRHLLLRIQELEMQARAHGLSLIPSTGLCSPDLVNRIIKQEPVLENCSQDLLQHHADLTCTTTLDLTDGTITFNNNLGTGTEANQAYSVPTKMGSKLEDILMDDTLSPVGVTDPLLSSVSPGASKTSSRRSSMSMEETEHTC

BJ [11] = test: growth inhibition of engineered Ras-driven BJ cells – cell-based, alamar blue fluorescence, cherrypicked samples, dose response (AID 2631); format: functional; details: Homo sapiens;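 further: confirmatory dose-response assay in RAS-dependent BJ fibroblasts engineered with TERT, LT and ST, with cytotoxicity read by fluorescence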
A-375 = test: proliferation inhibition in MITF-low A375 cells – cell-based, cherry-pick samples, set 2, counter-screen for MITF modulator project, dose response (AID 540335); format: functional; details: Homo sapiens
Escherichia coli = test: microbe, parasite or virus in culture
[12] = target: Beta-adrenergic receptor kinase 1 (Homo sapiens, UniProt P25098); test: aptamer displacement from bead-bound GRK2 – biochemical, cherry pick 1, bead flow cytometry, dose response (AID 504500)
[13] = target: T5, Carboxy-terminal domain RNA polymerase II polypeptide A small phosphatase 1 (Homo sapiens, UniProt Q9GZU7); test: CTDSP1 inhibitors, concentration-response, biochemical, absorbance readout, ultra-high-throughput screen actives (AID 540297); format: functional
T5 sequence (Q9GZU7 whole entry): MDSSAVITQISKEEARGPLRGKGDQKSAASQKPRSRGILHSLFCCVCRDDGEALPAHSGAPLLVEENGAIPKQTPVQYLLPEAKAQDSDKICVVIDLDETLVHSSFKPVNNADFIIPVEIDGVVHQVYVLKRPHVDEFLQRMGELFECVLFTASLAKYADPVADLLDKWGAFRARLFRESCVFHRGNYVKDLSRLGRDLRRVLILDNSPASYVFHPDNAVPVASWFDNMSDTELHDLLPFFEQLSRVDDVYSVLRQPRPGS

[14] = target: DNA (cytosine-5)-methyltransferase 1 (Homo sapiens, UniProt P26358); test: inhibition of DNA methylation by DNMT1 – biochemical, fluorescent molecular beacon, confirmation (AID 602386); format: functional
[15] = target: T6, Small ubiquitin-related modifier 1 (Homo sapiens, UniProt P63165); test: SUMO1 protein interaction blockers, potency – biochemical, fluorescence polarization, uHTS hits, dose response (AID 624382); format: functional; details: read-out: IC50_Mean
[16] = target: T6, Small ubiquitin-related modifier 1; test: SUMO1 protein-protein binding blockers, potency – biochemical, FRET, dose response (AID 624383); format: functional; details: read-out: IC50_Mean
Phospholipase D1 = Phospholipase D1 (Homo sapiens, UniProt Q13393); test: cellular phospholipase D1 inhibition IC50 – cell-based, dose response (AID 602151); format: functional;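 further: cellular PLD1 assay in Calu-1 cells stimulated with PMA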
Phospholipase D2 = Phospholipase D2 (Homo sapiens, UniProt O14939); test: cellular phospholipase D2 inhibition IC50 – cell-based, dose response (AID 602147); format: functional;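 further: cellular assay in HEK293 cells overexpressing GFP-tagged PLD2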
[17] = target: Beta-2 adrenergic receptor (Homo sapiens, UniProt P07550); test: ADRB2 activation measured by internalization – cell-based, FAP fluorogen, flow cytometry, cherry pick 1, dose response (AID 588763); format: functional
[18] = target: Latent membrane protein 1 (Human herpesvirus 4 (strain B95-8), UniProt P03230); test: LMP1 TES1 pathway selectivity over dsRED control – imaging, HEK293T, dual-color eGFP/dsRED, cherry-picks, selectivity assay for LMP1 NF-kB inhibitor project, dose response (AID 588398); format: functional, cell-based
[19] = target: Luciferin 4-monooxygenase (Photinus pyralis, UniProt P08659); test: inhibition of purified Photinus pyralis luciferase – biochemical, luminescence, dose response (AID 1891)
[20] = Luminescence Cell-Based Dose Confirmation HTS to Identify Inhibitors of Platelet Dense Granule Release. [Related pubchem assays: 1663 (Primary HTS), 1678 (Summary of Project)]; format: functional
[21] = PAR1 agonist-induced platelet activation inhibition – cell-based, fluorescence, flow cytometry, human platelets, dose response (AID 2511); format: functional
[22] = Fluorescence Cell-Based Dose Response to Identify Inhibitors of Thrombin Receptor-Activating Peptide SFLLRN-Mediated P-Selectin Induction on Platelets. [Related pubchem assays: 1663 (Primary HTS), 1889 (retest at dose ), 1891 (counterscreen), 1678 (Project Summary)]; format: functional
[23] = blockers of SFLLRN-triggered platelet ATP secretion – cell-based, human platelets, luminescence, dry powder, dose response (AID 493100); format: functional
[24] = Luminescence Cell-Based Dose Response Follow up to Identify Inhibitors of Platelet Dense Granule Release. [Related pubchem assays (depositor defined):AID1663, AID1678, AID2398]; format: functional
[25] = target: T7, Short transient receptor potential channel 4 (Mus musculus, UniProt Q9QUQ5); test: SAR Analysis for the identification of selective inhibits of the transient receptor potential cation channel C4 (TRPC4): Automated Electrophysiology. [Related pubchem assays (depositor defined):AID2256]; format: functional
T7 sequence (Q9QUQ5 whole entry): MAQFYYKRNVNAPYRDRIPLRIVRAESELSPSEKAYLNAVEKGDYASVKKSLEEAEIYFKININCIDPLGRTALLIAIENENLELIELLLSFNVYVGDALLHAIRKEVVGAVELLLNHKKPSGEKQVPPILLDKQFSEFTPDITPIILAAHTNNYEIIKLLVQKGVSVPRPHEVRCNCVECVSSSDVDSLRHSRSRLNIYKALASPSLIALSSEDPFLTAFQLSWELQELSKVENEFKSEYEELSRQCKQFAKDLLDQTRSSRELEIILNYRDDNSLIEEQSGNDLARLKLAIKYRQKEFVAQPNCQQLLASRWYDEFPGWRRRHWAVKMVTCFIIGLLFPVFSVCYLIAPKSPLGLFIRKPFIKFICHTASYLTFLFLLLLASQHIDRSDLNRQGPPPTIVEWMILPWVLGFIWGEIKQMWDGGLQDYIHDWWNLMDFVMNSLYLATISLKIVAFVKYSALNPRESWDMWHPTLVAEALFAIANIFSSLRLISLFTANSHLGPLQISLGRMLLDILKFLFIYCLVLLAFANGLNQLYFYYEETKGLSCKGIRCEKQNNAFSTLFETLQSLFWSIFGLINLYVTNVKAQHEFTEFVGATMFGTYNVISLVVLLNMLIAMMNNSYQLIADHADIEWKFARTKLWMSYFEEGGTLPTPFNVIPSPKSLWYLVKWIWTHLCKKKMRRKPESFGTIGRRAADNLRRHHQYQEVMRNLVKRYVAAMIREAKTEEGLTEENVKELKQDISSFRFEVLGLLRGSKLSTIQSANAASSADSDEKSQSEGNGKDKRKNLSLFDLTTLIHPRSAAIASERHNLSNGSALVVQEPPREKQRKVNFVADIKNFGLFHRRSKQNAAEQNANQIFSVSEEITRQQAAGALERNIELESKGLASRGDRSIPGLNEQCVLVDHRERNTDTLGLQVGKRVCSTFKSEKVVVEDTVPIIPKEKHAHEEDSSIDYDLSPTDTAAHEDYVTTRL

[26] = target: T7, Short transient receptor potential channel 4; test: mouse TRPC4 block via Gq-coupled stimulation – cell-based, acetylcholine stimulus, HEK293 TRPC4, Fluo-4, SAR follow-up (AID 492996); format: functional
[27] = target: Short transient receptor potential channel 6 (Mus musculus, UniProt Q61143); test: mouse TRPC6 channel blockers, concentration series – HEK293 cells, membrane potential dye, IC50, selectivity assay for selective TRPC4 inhibitor project, dose response (AID 492987); format: functional, cell-based
[28] = target: T7, Short transient receptor potential channel 4; test: potency of mouse TRPC4 calcium flux blockers – cell-based, HEK293 TRPC4/mu-opioid, DAMGO stimulus, Fluo-4, dose response (AID 492994); format: functional

T6 sequence (P63165 whole entry): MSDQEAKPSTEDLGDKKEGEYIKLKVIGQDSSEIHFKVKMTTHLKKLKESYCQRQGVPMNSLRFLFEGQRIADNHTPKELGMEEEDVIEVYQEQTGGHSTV
T2 sequence (Q9Y256 whole entry): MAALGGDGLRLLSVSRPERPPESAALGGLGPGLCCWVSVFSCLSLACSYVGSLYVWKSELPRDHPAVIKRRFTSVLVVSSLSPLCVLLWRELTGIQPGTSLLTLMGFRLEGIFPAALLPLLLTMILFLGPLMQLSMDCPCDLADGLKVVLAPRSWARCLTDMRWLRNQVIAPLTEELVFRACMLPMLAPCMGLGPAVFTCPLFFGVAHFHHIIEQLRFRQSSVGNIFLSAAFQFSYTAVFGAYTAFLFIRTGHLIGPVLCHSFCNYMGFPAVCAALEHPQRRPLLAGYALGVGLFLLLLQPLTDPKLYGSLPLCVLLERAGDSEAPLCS
Chain of DNA (cytosine-5)-methyltransferase 1 (P26358 whole entry): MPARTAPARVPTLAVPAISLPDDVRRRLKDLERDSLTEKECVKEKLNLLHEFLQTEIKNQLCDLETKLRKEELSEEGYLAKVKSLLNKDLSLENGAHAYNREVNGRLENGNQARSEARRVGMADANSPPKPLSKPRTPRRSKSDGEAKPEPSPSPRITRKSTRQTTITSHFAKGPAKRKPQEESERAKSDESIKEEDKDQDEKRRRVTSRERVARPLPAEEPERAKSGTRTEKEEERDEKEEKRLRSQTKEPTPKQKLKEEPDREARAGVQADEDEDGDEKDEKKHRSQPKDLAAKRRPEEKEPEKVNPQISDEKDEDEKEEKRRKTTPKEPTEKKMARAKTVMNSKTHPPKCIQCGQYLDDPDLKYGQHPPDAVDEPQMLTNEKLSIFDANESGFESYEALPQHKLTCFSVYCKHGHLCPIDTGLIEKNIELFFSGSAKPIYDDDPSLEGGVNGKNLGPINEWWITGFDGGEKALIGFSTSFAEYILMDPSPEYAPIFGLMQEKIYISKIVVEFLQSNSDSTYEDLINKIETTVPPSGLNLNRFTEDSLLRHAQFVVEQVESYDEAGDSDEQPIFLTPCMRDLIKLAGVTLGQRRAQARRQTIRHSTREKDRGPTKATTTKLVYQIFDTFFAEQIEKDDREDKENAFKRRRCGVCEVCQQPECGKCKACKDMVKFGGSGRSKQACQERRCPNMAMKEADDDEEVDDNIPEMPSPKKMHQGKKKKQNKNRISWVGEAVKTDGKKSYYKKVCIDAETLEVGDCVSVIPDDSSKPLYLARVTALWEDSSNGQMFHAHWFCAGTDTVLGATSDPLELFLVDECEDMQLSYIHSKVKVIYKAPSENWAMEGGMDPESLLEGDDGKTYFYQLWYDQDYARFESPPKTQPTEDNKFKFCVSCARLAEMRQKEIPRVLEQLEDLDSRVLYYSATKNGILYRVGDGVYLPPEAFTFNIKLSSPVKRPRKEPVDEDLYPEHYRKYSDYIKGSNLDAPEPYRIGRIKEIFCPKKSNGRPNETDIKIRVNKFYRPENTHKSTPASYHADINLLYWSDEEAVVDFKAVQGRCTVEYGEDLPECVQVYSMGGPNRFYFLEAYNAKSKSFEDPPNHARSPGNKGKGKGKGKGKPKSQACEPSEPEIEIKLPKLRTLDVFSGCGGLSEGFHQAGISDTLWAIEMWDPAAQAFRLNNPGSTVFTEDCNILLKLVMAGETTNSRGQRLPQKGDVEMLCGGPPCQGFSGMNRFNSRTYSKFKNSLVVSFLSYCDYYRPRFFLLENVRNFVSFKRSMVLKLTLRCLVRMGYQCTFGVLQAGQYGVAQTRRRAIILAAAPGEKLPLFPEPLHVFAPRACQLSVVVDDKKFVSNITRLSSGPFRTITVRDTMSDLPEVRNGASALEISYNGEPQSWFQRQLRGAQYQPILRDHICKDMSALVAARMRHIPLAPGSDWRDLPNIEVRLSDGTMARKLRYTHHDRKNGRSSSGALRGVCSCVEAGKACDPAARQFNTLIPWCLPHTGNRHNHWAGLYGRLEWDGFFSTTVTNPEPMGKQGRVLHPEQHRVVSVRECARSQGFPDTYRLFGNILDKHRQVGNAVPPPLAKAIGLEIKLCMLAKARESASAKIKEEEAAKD
Chain of Phospholipase D1 (Q13393 whole entry): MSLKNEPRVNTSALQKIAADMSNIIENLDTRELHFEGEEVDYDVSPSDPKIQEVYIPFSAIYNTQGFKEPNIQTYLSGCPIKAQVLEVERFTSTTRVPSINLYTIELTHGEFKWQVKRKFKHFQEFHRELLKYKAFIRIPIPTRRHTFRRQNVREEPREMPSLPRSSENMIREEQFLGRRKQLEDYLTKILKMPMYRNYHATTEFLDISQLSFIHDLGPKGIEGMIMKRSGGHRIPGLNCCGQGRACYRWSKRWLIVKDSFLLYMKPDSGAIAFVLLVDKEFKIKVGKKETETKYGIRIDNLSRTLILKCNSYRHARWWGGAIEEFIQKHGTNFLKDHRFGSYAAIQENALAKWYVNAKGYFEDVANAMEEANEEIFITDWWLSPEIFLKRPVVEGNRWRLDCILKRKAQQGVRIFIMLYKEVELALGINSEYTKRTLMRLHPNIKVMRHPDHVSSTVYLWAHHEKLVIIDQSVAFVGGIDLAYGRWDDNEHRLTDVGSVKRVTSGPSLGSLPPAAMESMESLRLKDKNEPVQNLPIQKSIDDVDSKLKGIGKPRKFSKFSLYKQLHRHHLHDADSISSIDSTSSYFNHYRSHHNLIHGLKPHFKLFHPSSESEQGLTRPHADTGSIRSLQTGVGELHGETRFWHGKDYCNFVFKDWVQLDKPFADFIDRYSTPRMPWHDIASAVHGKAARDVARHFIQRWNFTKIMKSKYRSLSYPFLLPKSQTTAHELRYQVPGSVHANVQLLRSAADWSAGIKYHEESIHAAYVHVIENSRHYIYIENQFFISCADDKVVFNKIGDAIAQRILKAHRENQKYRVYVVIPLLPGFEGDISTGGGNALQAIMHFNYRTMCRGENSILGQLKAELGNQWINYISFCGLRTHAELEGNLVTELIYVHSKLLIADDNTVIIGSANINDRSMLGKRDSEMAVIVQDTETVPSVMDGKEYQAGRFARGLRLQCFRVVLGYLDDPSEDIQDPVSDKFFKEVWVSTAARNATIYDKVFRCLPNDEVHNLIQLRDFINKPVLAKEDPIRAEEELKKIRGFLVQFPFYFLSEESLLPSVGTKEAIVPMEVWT
Chain of Short transient receptor potential channel 6 (Q61143 whole entry): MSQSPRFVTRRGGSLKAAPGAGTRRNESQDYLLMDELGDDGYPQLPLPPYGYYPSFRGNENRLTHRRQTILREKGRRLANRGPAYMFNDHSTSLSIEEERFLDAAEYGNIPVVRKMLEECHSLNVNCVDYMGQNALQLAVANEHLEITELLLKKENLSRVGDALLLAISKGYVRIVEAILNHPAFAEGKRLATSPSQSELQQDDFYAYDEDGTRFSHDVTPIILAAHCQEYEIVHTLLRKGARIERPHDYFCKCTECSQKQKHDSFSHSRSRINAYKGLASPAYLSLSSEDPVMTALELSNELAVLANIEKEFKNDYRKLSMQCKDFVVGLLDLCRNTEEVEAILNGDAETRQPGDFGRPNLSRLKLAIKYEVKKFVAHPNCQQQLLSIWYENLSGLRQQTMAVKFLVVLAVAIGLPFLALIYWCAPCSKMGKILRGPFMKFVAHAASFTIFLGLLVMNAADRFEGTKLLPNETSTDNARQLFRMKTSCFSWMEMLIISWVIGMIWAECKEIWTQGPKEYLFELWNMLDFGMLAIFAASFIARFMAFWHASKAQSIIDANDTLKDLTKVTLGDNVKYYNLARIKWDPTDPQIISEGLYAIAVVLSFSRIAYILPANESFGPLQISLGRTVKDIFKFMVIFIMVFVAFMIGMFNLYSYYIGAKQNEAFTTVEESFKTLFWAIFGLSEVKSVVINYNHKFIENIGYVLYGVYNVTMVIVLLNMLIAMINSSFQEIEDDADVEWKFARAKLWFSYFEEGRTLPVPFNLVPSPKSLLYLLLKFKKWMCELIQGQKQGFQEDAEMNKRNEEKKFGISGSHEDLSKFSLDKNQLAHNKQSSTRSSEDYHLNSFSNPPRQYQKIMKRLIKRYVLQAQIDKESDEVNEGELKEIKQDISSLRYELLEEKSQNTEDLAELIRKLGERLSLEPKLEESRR
Chain of Beta-adrenergic receptor kinase 1 (P25098 whole entry, the tested form may be a part): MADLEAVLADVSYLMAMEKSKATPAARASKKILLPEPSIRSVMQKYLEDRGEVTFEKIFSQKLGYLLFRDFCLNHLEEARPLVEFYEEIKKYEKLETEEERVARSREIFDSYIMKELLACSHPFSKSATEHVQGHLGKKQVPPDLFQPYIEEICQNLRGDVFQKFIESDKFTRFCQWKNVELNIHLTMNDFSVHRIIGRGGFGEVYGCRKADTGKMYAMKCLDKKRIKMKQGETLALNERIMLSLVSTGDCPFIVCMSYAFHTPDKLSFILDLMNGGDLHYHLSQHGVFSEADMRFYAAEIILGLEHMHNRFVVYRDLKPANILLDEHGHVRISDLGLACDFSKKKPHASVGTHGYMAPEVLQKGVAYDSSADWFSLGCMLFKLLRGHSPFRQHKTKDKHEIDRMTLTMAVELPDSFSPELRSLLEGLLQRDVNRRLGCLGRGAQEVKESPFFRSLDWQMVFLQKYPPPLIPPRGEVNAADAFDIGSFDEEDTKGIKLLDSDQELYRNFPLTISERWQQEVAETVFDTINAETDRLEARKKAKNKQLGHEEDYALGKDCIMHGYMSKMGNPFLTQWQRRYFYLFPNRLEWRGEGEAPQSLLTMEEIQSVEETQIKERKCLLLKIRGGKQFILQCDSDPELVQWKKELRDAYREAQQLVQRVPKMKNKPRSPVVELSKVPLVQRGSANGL

AC50 (CAAX prenyl protease 2 [1]): 550 nM (active) | AC50 (CAAX prenyl protease 2 [2]): 60.6 µM (active) | AC50 (CAAX prenyl protease 2 [3]): 4.85 µM (active) | AC50 (CAAX prenyl protease 2 [4]): 17.3 µM (active)
SMILES: CN(C(=O)COC(=O)c1cc([N+](=O)[O-])ccc1Sc1ccccc1)C1CCS(=O)(=O)C1 (centres undefined)

AC50 (Cytochrome P450 2C19): inconclusive
SMILES: Oc1cc(-c2ccccc2)nc2nc(Cl)ccc12
AC50 [5]: 35.5 µM (inconclusive)

IC50 (Bcl-2-like protein 10): 3.16 µM (active)
SMILES: Cc1ccc(C=NNC(=O)CSc2nnc(-c3ccc(Cl)cc3)n2-c2ccccc2)o1

EC50 [17]: 571 nM (active)
SMILES: CCOC(=O)c1ccc(N2C(=O)c3[nH]nc(-c4ccco4)c3C2c2cccc([N+](=O)[O-])c2)cc1 (centres undefined)

IC50 [25]: 3.59 µM (active) | IC50 [26]: 39.1 µM (active) | IC50 [27]: 11.9 µM (active) | IC50 [28]: 1.84 µM (active)
SMILES: Cc1cc(N2CCCC2)nc2ccccc12

The remaining lines, values behind:

SMILES: N#CCc1ccc(NC(=O)/C=C/c2ccc([N+](=O)[O-])o2)cc1
EC50 (BJ [6]): 4.8 µM (active) | EC50 (BJ [7]): 3.87 µM (inconclusive) | EC50 (BJ [8]): 5.37 µM (inconclusive) | EC50 [9]: 3.12 µM (active) | AC50 [10]: 4.97 µM (active) | EC50 (BJ [11]): 1.41 µM (active) | AC50 (A-375): 91.2 µM (active)

SMILES: CC1CCN(CC(=O)c2ccccc2Cl)CC1
AC50 (Escherichia coli): 34.2 µM (active)

SMILES: CCOC(=O)C(C)N1C(=O)S/C(=C\c2ccc(-c3ccccc3C(=O)O)o2)C1=O (centres undefined)
EC50 [12]: 3.05 µM (active) | IC50 [13]: 1.88 µM (active) | IC50 [14]: 6.76 µM (active) | IC50 [15]: > 66.6 µM (inactive) | IC50 [16]: 10.3 µM (active)

SMILES: O=C(c1cnc2ccccc2c1)N1CCCC1CN1CCC(n2c(=O)[nH]c3ccccc32)CC1 (centres undefined)
IC50 (Phospholipase D1): 2.8 µM (active) | IC50 (Phospholipase D2): 3.75 µM (active)

SMILES: CC(=NNC(=S)N1CCCCC1)c1ccccn1
AC50 [18]: 4.29 µM (active)

SMILES: Cc1ccc(-n2c(N)c(C#N)c(-c3ccccc3)c(C#N)c2=O)cc1
EC50 [19]: > 112 µM (not active) | EC50 [20]: 3.22 µM (active) | EC50 [21]: < 3 µM (active) | EC50 [22]: < 300 nM (active) | AC50 [23]: 7.52 µM (active) | EC50 [24]: 360 nM (active)
